One test concerns the target CDK4/cyclin D1 (Homo sapiens, UniProt P11802). Briefly: Assay of kinase activity (ADP-Glo). It counts as biochemical. The settings on record: kinase inhibitory activity. On the procedure:
(§1) CDK/cyclin catalyzes the phosphorylation of a substrate, which concomitantly consumes ATP and produces ADP. The inhibition rate (%) in the presence of a small molecule inhibitor was assessed by measuring the amount of ADP generated in the reaction. The assay compounds were thoroughly mixed by vortexing and then diluted in DMSO to 100× the assay concentration. […] A 2× kinase solution was prepared using a 1× kinase reaction buffer (50 mM Hepes, 10 mM MgCl2, 0.01% Brij35, 2 mM DTT). 2 µL of the kinase solution was transferred to the 384-well assay plate, and the plate was centrifuged at 1000 rpm for 60 seconds in a microplate centrifuge. The plate was incubated at 25 °C in a biochemical incubator for 10 minutes. A 2x mixture of substrate and ATP was prepared in the kinase reaction buffer. Then, 2 µL of the mixture of substrate and ATP was added to the 384-well assay plate. The plate was centrifuged at 1000 rpm for 60 seconds in a microplate centrifuge, and incubated at 25 °C in a biochemical incubator for 60 minutes. 4 µL of ADP-Glo Reagent (Cat. No. V9103, manufacturer: Promega) incubated at 25 °C in a biochemical incubator was added to each well of the 384-well assay plate. The plate was centrifuged at 1000 rpm for 60 seconds in a microplate centrifuge, and incubated at 25 °C in a biochemical incubator for 40 minutes. 8 µL of Detection Reagent incubated at 25 °C in a biochemical incubator was added to each well of the 384-well assay plate. The plate was centrifuged at 1000 rpm for 60 seconds in a microplate centrifuge, and incubated at 25 °C in a biochemical incubator for 40 minutes. Finally, luminescence signals were read using a multifunctional microplate reader (model: PHERAstar FSX, manufacturer: BMG). IC50 values were calculated by nonlinear fitting of the concentration-response curves using GraphPad Prism software.

A further test has as its target CDK2/cyclin E (Homo sapiens, UniProt P24941). Briefly: Assay of kinase activity (ADP-Glo). It counts as biochemical. The settings on record: kinase inhibitory activity, read-out: CDK2/E1 IC50. On the procedure:
as §1

A further test has as its target CDK6/cyclin D3 (Homo sapiens, UniProt Q00534). Briefly: Assay of kinase activity (ADP-Glo). It counts as biochemical. The settings on record: kinase inhibitory activity. Here is the method: (§2) CDK/cyclin catalyzes the phosphorylation of a substrate, which concomitantly consumes ATP and produces ADP. The inhibition rate (%) in the presence of a small molecule inhibitor was assessed by measuring the amount of ADP generated in the reaction. The assay compounds were thoroughly mixed by vortexing and then diluted in DMSO to 100× the assay concentration. 40 nL of a compound was transferred to a 384-well assay plate using a nanoliter pipetting system (ECHO® 655 SYSTEM). A 2× kinase solution was prepared using a 1× kinase reaction buffer (50 mM Hepes, 10 mM MgCl2, 0.01% Brij35, 2 mM DTT). 2 µL of the kinase solution was transferred to the 384-well assay plate, and the plate was centrifuged at 1000 rpm for 60 seconds in a microplate centrifuge. The plate was incubated at 25 °C in a biochemical incubator for 10 minutes. A 2x mixture of substrate and ATP was prepared in the kinase reaction buffer. Then, 2 µL of the mixture of substrate and ATP was added to the 384-well assay plate. The plate was centrifuged at 1000 rpm for 60 seconds in a microplate centrifuge, and incubated at 25 °C in a biochemical incubator for 60 minutes. 4 µL of ADP-Glo Reagent (Cat. No. V9103, manufacturer: Promega) incubated at 25 °C in a biochemical incubator was added to each well of the 384-well assay plate. The plate was centrifuged at 1000 rpm for 60 seconds in a microplate centrifuge, and incubated at 25 °C in a biochemical incubator for 40 minutes. 8 µL of Detection Reagent incubated at 25 °C in a biochemical incubator was added to each well of the 384-well assay plate. The plate was centrifuged at 1000 rpm for 60 seconds in a microplate centrifuge, and incubated at 25 °C in a biochemical incubator for 40 minutes. Finally, luminescence signals were read using a multifunctional microplate reader (model: PHERAstar FSX, manufacturer: BMG). IC50 values were calculated by nonlinear fitting of the concentration-response curves using GraphPad Prism software.

For test [1], the system named is Human ovarian cancer OVCAR3 cells. Briefly: Assay of cell proliferation (CellTiter-Glo). It counts as cell-based. The settings on record: Homo sapiens, OVCAR-3, 144 h, 6 days, read-out: OVCAR3 IC50 of cell proliferation inhibitory activity. On the procedure:
(§3) Human ovarian cancer OVCAR3 cells were inoculated at 2000 cells/well in a 96-well plate and cultured in RPMI 1640 medium containing 20% FBS at 37 °C and 5% CO2 overnight in an incubator. The next day, the compounds were subjected to a three-fold gradient dilution in DMSO from a peak concentration of 2 mM to give nine concentrations. Then, the compounds were diluted 3:200 in growth medium, and finally diluted 1:3 in the cell culture supernatant to give a culture supernatant containing 0.5% DMSO, with the compounds treatment concentrations ranging from 10 µM to 0.1 nM. The cells and the compounds were incubated at 37 °C and 5% CO2 for 6 days. Then, cell proliferation assay was performed using the CellTiter-Glo (manufacturer: Promega, Cat. No. G9242), and luminescence signals were read using a multifunctional microplate reader (model: Synergy H1, manufacturer: BiotTek). IC50 values were calculated by fitting of the concentration-response curves with a four-parameter analysis method using GraphPad Prism software.

For test [2], the system named is human acute myeloid leukemia MV-4-11 cells. Briefly: Assay of cell proliferation (CellTiter-Glo). It counts as cell-based. The settings on record: MV4-11, 144 h, 6 days, read-out: MV-4-11 IC50 of cell proliferation inhibitory activity. Here is the method: as §3
(§4) The cell proliferation assays of human colon cancer HCT-116 cells, human breast cancer MCF-7 cells, human breast cancer HCC1806 cells, human acute myeloid leukemia MV-4-11 cells, and human gastric cancer MKN1 cells were performed according to the same method, with different inoculation densities set according to different cell growth characteristics.

Test [3] has as its system human breast cancer HCC1806 cells. Briefly: Assay of cell proliferation (CellTiter-Glo). It counts as cell-based. The settings on record: Homo sapiens, 144 h, 6 days, read-out: HCC1806 IC50 of cell proliferation inhibitory activity. On the procedure:
as §3, §4

Test [4] deals with human gastric cancer MKN1 cells. Briefly: Assay of cell proliferation (CellTiter-Glo). The settings on record: Homo sapiens, MKN-1, 144 h; MNK1, 6 days; read-out: MKN1 IC50 of cell proliferation inhibitory activity. It counts as cell-based. Here is the method: as §3, §4
The target in a further test is CDK9/cyclin T1 (Homo sapiens, UniProt P50750). Briefly: Assay of kinase activity (ADP-Glo). Format: biochemical. The settings on record: kinase inhibitory activity. On the procedure: as §2
Sequence of CDK9/cyclin T1 (P50750 whole entry, species assumed): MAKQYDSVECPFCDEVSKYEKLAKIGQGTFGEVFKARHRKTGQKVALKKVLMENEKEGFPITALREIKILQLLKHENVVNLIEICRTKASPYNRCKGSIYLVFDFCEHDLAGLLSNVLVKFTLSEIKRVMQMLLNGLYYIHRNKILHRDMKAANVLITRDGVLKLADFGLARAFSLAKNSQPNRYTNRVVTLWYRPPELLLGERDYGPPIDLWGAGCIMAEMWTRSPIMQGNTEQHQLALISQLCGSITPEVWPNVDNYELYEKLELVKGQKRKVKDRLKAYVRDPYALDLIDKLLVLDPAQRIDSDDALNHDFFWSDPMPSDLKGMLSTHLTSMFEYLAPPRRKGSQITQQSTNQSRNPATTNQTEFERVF
Sequence of CDK9/cyclin T1 (O60563 whole entry partner, species assumed): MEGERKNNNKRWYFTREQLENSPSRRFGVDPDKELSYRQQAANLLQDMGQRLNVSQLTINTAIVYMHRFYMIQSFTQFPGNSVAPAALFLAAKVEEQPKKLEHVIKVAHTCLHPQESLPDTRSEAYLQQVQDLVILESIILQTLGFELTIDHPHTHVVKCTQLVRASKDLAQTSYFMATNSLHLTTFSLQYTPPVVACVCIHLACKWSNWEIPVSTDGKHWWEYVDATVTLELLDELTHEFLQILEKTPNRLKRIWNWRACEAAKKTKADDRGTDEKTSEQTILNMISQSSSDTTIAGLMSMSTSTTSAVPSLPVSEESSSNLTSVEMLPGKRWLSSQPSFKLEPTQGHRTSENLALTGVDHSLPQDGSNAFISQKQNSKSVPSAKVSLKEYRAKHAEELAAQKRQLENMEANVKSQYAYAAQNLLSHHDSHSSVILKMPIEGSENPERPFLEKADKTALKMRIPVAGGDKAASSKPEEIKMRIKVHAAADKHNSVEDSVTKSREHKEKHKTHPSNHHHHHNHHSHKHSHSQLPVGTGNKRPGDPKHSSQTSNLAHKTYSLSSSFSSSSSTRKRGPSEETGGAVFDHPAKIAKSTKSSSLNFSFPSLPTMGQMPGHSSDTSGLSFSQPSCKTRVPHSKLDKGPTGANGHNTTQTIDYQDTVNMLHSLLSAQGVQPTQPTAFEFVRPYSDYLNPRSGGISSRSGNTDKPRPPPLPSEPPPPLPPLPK

Sequence of CDK4/cyclin D1 (P11802 whole entry, species assumed): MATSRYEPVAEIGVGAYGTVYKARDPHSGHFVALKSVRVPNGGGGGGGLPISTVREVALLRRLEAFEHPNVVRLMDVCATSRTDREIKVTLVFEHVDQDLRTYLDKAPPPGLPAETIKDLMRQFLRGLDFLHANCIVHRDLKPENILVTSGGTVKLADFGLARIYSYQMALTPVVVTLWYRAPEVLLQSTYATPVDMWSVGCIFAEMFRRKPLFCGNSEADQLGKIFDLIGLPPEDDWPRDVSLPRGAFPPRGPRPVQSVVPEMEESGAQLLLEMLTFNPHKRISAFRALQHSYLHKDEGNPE
Sequence of CDK4/cyclin D1 (P24385 whole entry partner, species assumed): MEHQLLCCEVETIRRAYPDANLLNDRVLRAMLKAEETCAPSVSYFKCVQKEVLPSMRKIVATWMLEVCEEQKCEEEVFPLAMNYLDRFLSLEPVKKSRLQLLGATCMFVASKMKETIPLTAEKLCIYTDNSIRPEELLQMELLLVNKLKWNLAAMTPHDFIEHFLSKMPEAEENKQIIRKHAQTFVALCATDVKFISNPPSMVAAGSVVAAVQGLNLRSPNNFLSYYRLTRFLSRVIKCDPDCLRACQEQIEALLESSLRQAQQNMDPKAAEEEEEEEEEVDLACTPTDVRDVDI
Sequence of CDK6/cyclin D3 (Q00534 whole entry, species assumed): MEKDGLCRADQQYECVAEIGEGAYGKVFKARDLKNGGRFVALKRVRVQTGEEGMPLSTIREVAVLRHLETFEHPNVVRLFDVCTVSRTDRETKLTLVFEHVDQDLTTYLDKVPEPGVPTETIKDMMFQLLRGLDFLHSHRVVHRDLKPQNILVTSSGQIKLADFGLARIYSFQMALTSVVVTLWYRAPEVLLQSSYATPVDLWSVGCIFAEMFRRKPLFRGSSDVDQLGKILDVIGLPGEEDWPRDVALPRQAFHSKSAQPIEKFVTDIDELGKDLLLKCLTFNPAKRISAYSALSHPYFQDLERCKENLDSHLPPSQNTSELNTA
Sequence of CDK6/cyclin D3 (P30281 whole entry partner, species assumed): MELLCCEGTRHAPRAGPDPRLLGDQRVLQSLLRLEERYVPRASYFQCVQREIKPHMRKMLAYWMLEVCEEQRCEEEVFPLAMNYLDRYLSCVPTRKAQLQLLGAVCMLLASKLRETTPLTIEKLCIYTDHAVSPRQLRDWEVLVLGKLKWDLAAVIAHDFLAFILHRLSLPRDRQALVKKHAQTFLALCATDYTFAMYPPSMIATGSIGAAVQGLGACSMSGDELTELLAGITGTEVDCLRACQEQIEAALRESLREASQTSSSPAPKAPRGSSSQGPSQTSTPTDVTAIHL

As to `CC(C)n1nnc2ccc3cnc(Nc4ccc(C(=O)N5CC[C@@H](C)[C@@H](N)C5)cc4)nc3c21` [Example I-12, ((3R,4R)-3-Amino-4-methylpiperidin-1-yl)(4-((1-isopropyl-1H-[1,2,3]triazolo[4,5-H]quinazolin-8-yl)amino)phenyl)metha none], the IC50 against CDK4/cyclin D1 was determined as 3 nM; on CDK2/cyclin E it was 1 nM; at CDK6/cyclin D3 it was 18 nM; in test [1] it was 26 nM; in test [2], 6 nM; in test [3], 84 nM. For the same compound, the IC50 in test [4] was determined as 30 nM.

On to `CC(C)n1nnc2c(C(F)F)cc3cnc(Nc4ccc(C(=O)N5CC[C@H](N(C)C)C5)cc4)nc3c21` [Example I-45, (S)-(4-((4-(Difluoromethyl)-1-isopropyl-1H-[1,2,3]triazolo[4,5-H]quinazolin-8-yl)amino)phenyl)(3-(dimethylamino)pyrrolidin-1-yl)methanone], for which the IC50 against CDK4/cyclin D1 was 3 nM; at CDK2/cyclin E, 0.8 nM; at CDK9/cyclin T1, 144 nM; on CDK6/cyclin D3 it was 36 nM; in test [1], 359 nM; in test [3], 476 nM. For the same compound, the IC50 in test [4] stood at 241 nM.

`CN(C)[C@H]1CCN(C(=O)c2ccc(Nc3ncc4ccc5nnn(C6CCCC6)c5c4n3)cc2)C1` [Example I-40, (S)-(4-((1-cyclopentyl-1H-[1,2,3]triazolo[4,5-H]quinazolin-8-yl)amino)phenyl)(3-(dimethylamino)pyrrolidin-1-yl)methanone]: the IC50 at CDK4/cyclin D1 stood at 0.7 nM; on CDK2/cyclin E it was 0.06 nM; against CDK9/cyclin T1, 2 nM; at CDK6/cyclin D3, 3 nM; in test [1], 10 nM; in test [3] it was 16 nM. The IC50 in test [4] turned out to be 5 nM.

On to `CC(C)n1nnc2ccc3cnc(Nc4ccc(C(=O)N5CCN(C)CC5)c(F)c4)nc3c21` [Example I-26, (2-Fluoro-4-((1-isopropyl-1H-[1,2,3]triazolo[4,5-H]quinazolin-8-yl)amino)phenyl)(4-methylpiperazin-1-yl)methanone], for which the IC50 against CDK4/cyclin D1 amounted to 4 nM; on CDK2/cyclin E, 1 nM; on CDK9/cyclin T1, 16 nM; at CDK6/cyclin D3 it was 19 nM; in test [1], 45 nM; in test [3], 436 nM. In addition, the IC50 in test [4] is 41 nM.

As to `CN[C@H]1CCN(C(=O)c2ccc(Nc3ncc4ccc5nnn(C6CCCC6)c5c4n3)cc2)C1` [Example I-39, (S)-(4-((1-cyclopentyl-1H-[1,2,3]triazolo[4,5-H]quinazolin-8-yl)amino)phenyl)(3-(methylamino)pyrrolidin-1-yl)methanone], the IC50 against CDK4/cyclin D1 amounted to 0.7 nM; on CDK2/cyclin E, 0.07 nM; at CDK9/cyclin T1 it was 2 nM; on CDK6/cyclin D3, 4 nM; in test [1], 5 nM; in test [3] it was 7 nM. The IC50 in test [4] stood at 1 nM.

On to `O=C(c1ccc(Nc2ncc3ccc4nnn(C5CCCC5)c4c3n2)cc1)N1CCCNCC1` [Example I-41, (4-((1-Cyclopentyl-1H-[1,2,3]triazolo[4,5-H]quinazolin-8-yl)amino)phenyl)(1,4-diazepan-1-yl)methanone], for which the IC50 on CDK4/cyclin D1 was determined as 1 nM; on CDK2/cyclin E it was 0.08 nM; at CDK9/cyclin T1, 2 nM; against CDK6/cyclin D3 it was 5 nM; in test [1], 11 nM; in test [3] it was 15 nM. For the same compound, the IC50 in test [4] was determined as 4 nM.

As to `CN[C@H]1CCN(C(=O)c2ccc(Nc3ncc4cc(C(F)F)c5nnn(C(C)C)c5c4n3)cc2)C1` [Example I-44, (S)-(4-((4-(difluoromethyl)-1-isopropyl-1H-[1,2,3]triazolo[4,5-H]quinazolin-8-yl)amino)phenyl)(3-(methylamino)pyrrolidin-1-yl)methanone], the IC50 against CDK4/cyclin D1 is 2 nM; on CDK2/cyclin E, 0.7 nM; against CDK9/cyclin T1, 140 nM; at CDK6/cyclin D3 it was 16 nM; in test [1], 321 nM; in test [3], 404 nM. Also, the IC50 in test [4] was found to be 127 nM.

For `C[C@H](CO)n1nnc2ccc3cnc(Nc4ccc(C(=O)N5CCNCC5)cc4)nc3c21` [Example I-50, (R)-(4-((1-(1-Hydroxypropan-2-yl)-1H-[1,2,3]triazolo[4,5-H]quinazolin-8-yl)amino)phenyl)(piperazin-1-yl)methanone], the IC50 was 4 nM against CDK4/cyclin D1; 2 nM at CDK2/cyclin E; 100 nM against CDK9/cyclin T1; 85 nM on CDK6/cyclin D3; 1310 nM in test [1]; 1740 nM in test [3]. In addition, in test [4], the IC50 was found to be 548 nM.

In the case of `N[C@H]1CCN(C(=O)c2ccc(Nc3ncc4ccc5nnn(C6CCCC6)c5c4n3)cc2)C1` [Example I-38, (S)-(3-Aminopyrrolidin-1-yl)(4-((1-cyclopentyl-1H-[1,2,3]triazolo[4,5-H]quinazolin-8-yl)amino)phenyl)methanone], the IC50 against CDK4/cyclin D1 stood at 0.5 nM; at CDK2/cyclin E it was 0.05 nM; against CDK9/cyclin T1 it was 4 nM; against CDK6/cyclin D3 it was 3 nM; in test [1], 8 nM; in test [3], 13 nM. Besides, the IC50 in test [4] is 1 nM.

Turning to `CN1CCCN(C(=O)c2ccc(Nc3ncc4ccc5nnn(C6CCCC6)c5c4n3)cc2)CC1` [Example I-42, (4-((1-Cyclopentyl-1H-[1,2,3]triazolo[4,5-H]quinazolin-8-yl)amino)phenyl)(4-methyl-1,4-diazepan-1-yl)methanone], the IC50 on CDK4/cyclin D1 turned out to be 1 nM; on CDK2/cyclin E, 0.06 nM; against CDK9/cyclin T1 it was 2 nM; at CDK6/cyclin D3 it was 4 nM; in test [1], 6 nM; in test [3], 7 nM. In addition, the IC50 in test [4] was found to be 3 nM.
